Data as given in patent US20150313215A1, “PESTICIDAL MIXTURES” (priority 2010, published 2015).

Columns and labels:
Assay type in all cases: in vivo
[1] = test system: Phakopsora pachyrhizi; assay: Greenhouse experiments, control of soybean rust on soybean, foliar spray; conditions: Halo methylene benzonorbornene amide 1 gai/ha
Description: Control of Phakopsora pachyrhizi on Soybean
Greenhouse experiments were conducted to evaluate the ability of cis-jasmone to enhance fungicidal activity of a single agrochemical active ingredient and also of a mixture of two agrochemical active ingredients. A fungicidally active ingredient, N-[(1RS,4SR)-9-(Dichloromethylidene)-1,2,3,4-tetrahydro-1,4-methanonaphthalen-5-yl]-3-(difluoromethyl)-1-methyl-1H-pyrazole-4-carboxamide (“halo methylene benzonorbornene amide”), alone or in admixture with another fungicidally active ingredient, azoxystrobin, controls soybean rust when applied as a foliar spray. See data in Table 7.

[2] = test system: Thrips Thrips Tabaci; assay: Field trial, control of thrips on cotton; conditions: for Average Number of Thrips per Plant: 1 foliar spray, adult thrips; for average number of thrips per plant observed across all days monitored: Day 1 to Day 22
Description: Control of Thrips Thrips Tabaci on Cotton
A field trial using 21 m^2 plots, 3 replicates and 1 foliar spray was assessed for number of adult thrips/plant on Day 1, Day 3, Day 5, Day 8, Day 10, Day 15, and Day 22 after treatment. Data for untreated control are an average of four control plots.

[3] = test system: Two Spotted Spider Mite Tetranychus urticae; assay: Field trial, control of two spotted spider mite on kidney beans; conditions: 2 foliar sprays at 10 day intervals, 11 evaluation dates Day 3 to Day 35
Description: Control of Two Spotted Spider Mite Tetranychus urticae on Kidney Beans
A field trial using a plot size of 20 m^2, 3 replicates and 2 foliar sprays at 500 I/ha at 10 day intervals was assessed for average mite population/20 leaves/plot from 11 evaluation dates from Day 3 to Day 35 after treatment.

[4] = test system: Currant-Lettuce Aphid Nasonova ribis-nigri; assay: Field trial, control of currant-lettuce aphid on lettuce (Example 3); conditions: 1 foliar spray, apterous aphids
Description: (§1) Control of Currant-Lettuce Aphid Nasonova ribis-nigri on Lettuce
A field trial using plots of 20 plants, 4 replicates and 1 foliar spray was assessed for number of apterous aphids/plant on Day 3, Day 7 and Day 10 after treatment.

[5] = test system: Aphid Aphis gossypii; assay: Field trial, control of aphid on cotton (Example 6); conditions: 1 foliar spray, 8 evaluation dates from Day 3 to Day 29
Description: (§2) Control of Aphid Aphis gossypii on Cotton
(§3) A field trial using plots of 20 plants, 3 replicates and 1 foliar spray was assessed for number of alate and apterous aphids/plant from 8 evaluation dates from Day 3 to Day 29 after treatment. Data for untreated control are an average of four control plots (each 3 replicates; 240 total plants) which were interspersed within the treated plots.

[6] = test system: Aphid Aphis gossypii; assay: Field trial, control of aphid on cotton (Example 5); conditions: for Average Number of Aphids per Plant: 1 foliar spray, apterous adults; for average number of aphids per plant observed across all days monitored: Day 1 to Day 22
Description: as §2
A field trial using 21 m^2 plots, 3 replicates and 1 foliar spray was assessed for number of apterous adults/plant on Day 1, Day 3, Day 5, Day 8, Day 10, Day 15, and Day 22 after treatment. Data for untreated control are an average of four control plots.

[7] = test system: Currant-Lettuce Aphid Nasonova ribis-nigri; assay: Field trial, control of currant-lettuce aphid on lettuce (Example 2); conditions: 1 foliar spray; for Average Number of Aphids per Plant: apterous aphids
Description: as §1
as §3, with “of” for “of alate and”, “and number of infected plants on” for “from 8 evaluation dates from”, “4,” for “3 to”, “8, Day 11 and Day 14” for “29”

[8] = Cis-jasmone 50 gai/hl, Day 1 after treatment
[9] = Cis-jasmone 50 gai/hl, Day 3 after treatment
[10] = Cis-jasmone 50 gai/hl, Day 5 after treatment
[11] = Cis-jasmone 50 gai/hl, Day 8 after treatment
[12] = Cis-jasmone 50 gai/hl, Day 10 after treatment
[13] = Cis-jasmone 50 gai/hl, Day 15 after treatment
[14] = Cis-jasmone 50 gai/hl, Day 22 after treatment
[15] = Cis-jasmone 50 gai/hl, Day 4 after treatment
[16] = Cis-jasmone 50 gai/hl, Day 11 after treatment
[17] = Cis-jasmone 50 gai/hl, Day 14 after treatment
[18] = Thiamethoxam 30 gai/hl, Day 1 after treatment
[19] = Thiamethoxam 30 gai/hl, Day 3 after treatment
[20] = Thiamethoxam 30 gai/hl, Day 5 after treatment
[21] = Thiamethoxam 30 gai/hl, Day 8 after treatment
[22] = Thiamethoxam 30 gai/hl, Day 10 after treatment
[23] = Thiamethoxam 30 gai/hl, Day 15 after treatment
[24] = Thiamethoxam 30 gai/hl, Day 22 after treatment
[25] = Thiamethoxam 30 gai/hl, Day 4 after treatment
[26] = Thiamethoxam 30 gai/hl, Day 11 after treatment
[27] = Thiamethoxam 30 gai/hl, Day 14 after treatment

Cn1cc(C(=O)Nc2cccc3c2[C@@H]2CC[C@H]3C2=C(Cl)Cl)c(C(F)F)n1 (racemic) [Halo methylene benzonorbornene amide, N-[(1RS,4SR)-9-(Dichloromethylidene)-1,2,3,4-tetrahydro-1,4-methanonaphthalen-5-yl]-3-(difluoromethyl)-1-methyl-1H-pyrazole-4-carboxamide]
Percentage Fungicidal Activity [1]: 20%

CC/C=C\CC1=C(C)CCC1=O [Cis-jasmone, cis-jasmone]
Average Number of Thrips per Plant [2, 8]: 24 | average number of thrips per plant observed across all days monitored ([2]; Cis-jasmone 50 gai/hl): 39 | Average Number of Thrips per Plant [2, 9]: 19 | Average Number of Thrips per Plant [2, 10]: 28 | Average Number of Thrips per Plant [2, 11]: 48 | Average Number of Thrips per Plant [2, 12]: 58 | Average Number of Thrips per Plant [2, 13]: 65 | Average Number of Thrips per Plant [2, 14]: 32 | % pest control versus untreated check ([3]; Cis-jasmone 5 gai/hl, mite population/20 leaves/plot): 51.00% | Average Number of Aphids per Plant ([4]; Cis-jasmone at 100 gai/hl, Day 3 after treatment): 2.963 | Average Number of Aphids per Plant ([4]; Cis-jasmone at 100 gai/hl, Day 7 after treatment): 6.563 | Average Number of Aphids per Plant ([4]; Cis-jasmone at 100 gai/hl, Day 10 after treatment): 12.375 | Average Number of Aphids/Plant, Alate ([5]; Cis-Jasmone 50 gai/hl): 18 | Average Number of Aphids/Plant, Apterous ([5]; Cis-Jasmone 50 gai/hl): 260 | Average Number of Aphids per Plant [6, 8]: 40 | average number of aphids per plant observed across all days monitored ([6]; Cis-jasmone 50 gai/hl): 61 | Average Number of Aphids per Plant [6, 9]: 33 | Average Number of Aphids per Plant [6, 10]: 45 | Average Number of Aphids per Plant [6, 11]: 126 | Average Number of Aphids per Plant [6, 12]: 139 | Average Number of Aphids per Plant [6, 13]: 27 | Average Number of Aphids per Plant [6, 14]: 14 | Number of Infested Plants (out of 60) [7, 15]: 21 | Average Number of Aphids per Plant [7, 15]: 0.57 | Number of Infested Plants (out of 60) [7, 11]: 48 | Average Number of Aphids per Plant [7, 11]: 3.28 | Number of Infested Plants (out of 60) [7, 16]: 59 | Average Number of Aphids per Plant [7, 16]: 8.02 | Number of Infested Plants (out of 60) [7, 17]: 60 | Average Number of Aphids per Plant [7, 17]: 19.25

CNC(=O)c1cc(C#N)cc(C)c1NC(=O)c1cc(Br)nn1-c1ncccc1Cl [Cyantraniliprole, cyantraniliprole]
Average Number of Aphids/Plant, Alate ([5]; Cyantraniliprole 100 gai/hl): 17 | Average Number of Aphids/Plant, Apterous ([5]; Cyantraniliprole 100 gai/hl): 235 | Average Number of Aphids/Plant, Alate ([5]; Cyantraniliprole 200 gai/hl): 16 | Average Number of Aphids/Plant, Apterous ([5]; Cyantraniliprole 200 gai/hl): 179

CN1COCN(Cc2cnc(Cl)s2)/C1=N\[N+](=O)[O-] [Thiamethoxam, thiamethoxam]
Average Number of Thrips per Plant [2, 18]: 31 | average number of thrips per plant observed across all days monitored ([2]; Thiamethoxam 30 gai/hl): 28 | Average Number of Thrips per Plant [2, 19]: 17 | Average Number of Thrips per Plant [2, 20]: 27 | Average Number of Thrips per Plant [2, 21]: 15 | Average Number of Thrips per Plant [2, 22]: 27 | Average Number of Thrips per Plant [2, 23]: 52 | Average Number of Thrips per Plant [2, 24]: 29 | Average Number of Aphids per Plant ([4]; Thiamethoxam at 25 gai/hl, Day 3 after treatment): 0.063 | Average Number of Aphids per Plant ([4]; Thiamethoxam at 25 gai/hl, Day 7 after treatment): 0.788 | Average Number of Aphids per Plant ([4]; Thiamethoxam at 25 gai/hl, Day 10 after treatment): 4.813 | Average Number of Aphids per Plant [6, 18]: 41 | average number of aphids per plant observed across all days monitored ([6]; Thiamethoxam 30 gai/hl): 25 | Average Number of Aphids per Plant [6, 19]: 20 | Average Number of Aphids per Plant [6, 20]: 23 | Average Number of Aphids per Plant [6, 21]: 26 | Average Number of Aphids per Plant [6, 22]: 33 | Average Number of Aphids per Plant [6, 23]: 20 | Average Number of Aphids per Plant [6, 24]: 10 | Number of Infested Plants (out of 60) [7, 25]: 1 | Average Number of Aphids per Plant [7, 25]: 0.05 | Number of Infested Plants (out of 60) [7, 21]: 3 | Average Number of Aphids per Plant [7, 21]: 0.12 | Number of Infested Plants (out of 60) [7, 26]: 15 | Average Number of Aphids per Plant [7, 26]: 1 | Number of Infested Plants (out of 60) [7, 27]: 22 | Average Number of Aphids per Plant [7, 27]: 2.25

abamectin
% pest control versus untreated check ([3]; Abamectin 0.45 gai/hl): 41.22% | % pest control versus untreated check ([3]; Abamectin 0.9 g active ingredient/hl): 56.56%
